Tests used:
[1] = tested on: Maoa WT and Maoa KO BMDMs; assay: Maoa WT and Maoa KO BMDM IL-4/IL-13 polarization with H2O2 or tyramine supplement; assay type: cell-based, mouse
Text: MAO-A breaks down monoamines and generates hydrogen peroxide (H2O2) as a byproduct, thereby increasing reactive oxygen species (ROS) levels in a TAM. b,c, Studying the in vivo ROS levels in TAMs isolated from Mao WT and Mao KO mice bearing B16-OVA tumours (n=4). (b) Experimental design. (c) FACS analyses of ROS levels in Maoa WT and Maoa KO TAMs at day 18. TAMs were gated as the CD45.2^+CD11b^+Ly6G^−Ly6C^−/lowF4/80^+ cells of total tumour-infiltrating immune cells (TIIs). d, FACS analyses of ROS levels in in vitro-cultured Maoa WT and Maoa KO BMDMs, […] IL-4/IL-13 polarization for 24 hours (n=4). NC, no cytokine-treated control BMDMs: IL-4/IL-13, IL-4/IL-13-polarized BMDMs. e-g, Studying the phenotype of IL-4/IL-13-polarized Maoa WT and Maoa KO BMDMs with or without H2O2 treatment (n=3). BMDMs were treated with H2O2 for 30 minutes prior to IL-4/IL-13 polarization for 24 hours. (e) FACS analyses of CD206 expression on BMDMs. (f,g) QPCR analyses of Chi313 (f) and Arg1 (g) mRNA expression in BMDMs. h-j, Studying the phenotype of IL-4/IL-13-polarized Maoa WT and Maoa KO BMDMs with or without tyramine supplement (n=3). BMDMs were treated with tyramine for 30 minutes prior to IL-4/IL-13 polarization for 24 hours. (h) FACS analyses of ROS levels in BMDMs. (i,j) QPCR analyses of Chi3/3 (i) and Arg1 (j) mRNA expression in BMDMs. k,l, Studying the in vivo Stat6 signaling in TAMs isolated from Mao WT and Mao KO mice bearing B16-OVA tumours (combined from 5 mice per group). (k) Experimental design. (l) Western blot analyses of Stat6 phosphorylation in TAMs at day 18. TAMs were FACS sorted as the DAPI^−CD45.2^+CD11b^+Ly6G^−Ly6C^−/lowF4/80^+ cells from total TIIs. m, Western blot analyses of JAK-Stat6 signaling in in vitro-cultured Maoa WT and Maoa KO BMDMs, with or without IL-4/IL-13 polarization and H2O2 treatment. BMDMs were treated with H2O2 for 30 minutes prior to IL-4/IL-13 stimulation for another 30 minutes. Representative of 3 experiments. All data are presented as the mean±SEM. ns, not significant, *P<0.05, **P<0.01, and ***P<0.001, by 2-way ANOVA (d-j) or by Student's t test (c).
[…] BMDMs (denoted as WT and KO, respectively) were treated with H2O2 for 30 minutes followed by IL-4/IL-13 stimulation for another 30 minutes. BMDMs were then collected for FACS analysis. N=4. a, FACS plots showing ROS levels in the indicated BMDMs. b, Quantification of A. Representative of 2 experiments. All data are presented as the mean±SEM. ns, not significant, ***P<0.001, by 2-way ANOVA (b).
(§1) To generate BMDMs, BM cells were collected from femurs and tibias of Maoa WT mice and Maoa KO mice, and were cultured in C10 medium containing with 20% of L929-conditional medium in a 10-cm dish (2×10^6 cells per ml: 12 ml per dish) for 6 days. At day 6, the resulting BMDMs were collected and reseeded in a 6-well plate (1×10^6 cells per ml: 2 ml per well) in C10 medium for 24 hours, in the presence or absence of recombinant murine IL-4 (10 ng/ml) (Peprotech, 200-04) and IL-13 (10 ng/ml) (Peprotech, 200-13) to induce BMDM immunosuppressive polarization.
In some experiments, H2O2 (100 μM) were added to the Maoa WT and Maoa KO BMDM polarization culture 30 minutes prior to adding recombinant murine IL-4 and IL-13. At 30 minutes after IL-4/IL-13 stimulation, BMDMs were collected for WB analysis: at 24 hours after IL-4/IL-13 stimulation, BMDMs were collected for flow cytometry and QPCR analysis.
In some experiments, tyramine (100 μM) (Sigma-Aldrich, T90344) were added to the Maoa WT and Maoa KO BMDM polarization culture 30 minutes prior to adding recombinant murine IL-4 and IL-13. At 24 hours after IL-4/IL-13 stimulation, BMDMs were collected for flow cytometry and QPCR analysis.

[2] = tested on: wildtype BMDMs (bone marrow-derived macrophages); assay: In vitro WT BMDM IL-4/IL-13-induced polarization culture with MAOI treatment; assay type: cell-based, mouse; settings: IL-4/IL-13-stimulated WT BMDMs, 24 h
Experimental: (a) Experimental design. Wildtype BMDMs were stimulated with IL-4/IL-13 with or without MAOI treatment. MAOIs (monoamine oxidase inhibitors) studied were phenelzine (Phe: 20 μM), clorgyline (Clo: 20 μM), moclobemide (Moc: 200 μM), and pirlindole (Pir: 20 μM). NT, no MAOI treatment. (b) FACS analyses of ROS levels in BMDMs. (c) FACS analyses of CD206 expression on BMDMs. (d,e) QPCR analyses of Chi313 (d) and Arg1 (e) mRNA expression in BMDMs. f-j, Studying the TAM-related cancer immunotherapy potential of MAOI treatment in a B16-OVA melanoma syngeneic mouse tumour model (n=7-8). (f) Experimental design. B6 wildtype mice were treated with clodronate liposomes (Clod) to serve as TAM-depleted experimental mice, or treated with vehicle liposomes (Veh) to serve as TAM-intact control mice. Phe, phenelzine treatment: NT, no phenelzine treatment. (g) Tumour growth. (h) Tumour volume at day 18. (i) FACS analyses of CD206 expression on TAMs of TAM-intact experimental mice. (j) FACS analyses of intracellular Granzyme B production in tumour-infiltrating CD8^+ T cells of all experimental mice. k-o, Studying the cancer therapy potential of MAOI treatment in combination with anti-PD-1 treatment in the B16-OVA melanoma and MC38 colon cancer syngeneic mouse tumour models (n=5). (k) Experimental design. Tumour-bearing mice were treated with anti-PD-1 antibody (aPD-1) or isotype control (Iso), together with or without phenelzine (Phe) treatment. NT, no Phe treatment. (l) B16-OVA tumour growth. (m) B16-OVA tumour volume at day 18. (n) MC38 tumour growth. (o) MC38 tumour volume at day 27. Representative of 3 experiments. All data are presented as the mean±SEM. ns, not significant, *P<0.05, **P<0.01, and ***P<0.001, by I-way ANOVA (b-e, h, j, m, o) or by Student's t test (i).
as §1
In some experiments, MAOIs were added to the Maoa WT BMDM polarization culture 30 minutes prior to adding recombinant murine IL-4 and IL-13, to block MAO-A activity during BMDM polarization. MAOIs studied were phenelzine (Phe, 20 μM) (Sigma-Aldrich), clorgyline (Clo, 20 μM) (Sigma-Aldrich), moclobemide (Moc, 200 μM) (Sigma-Aldrich), and pirlindole (Pir, 20 μM) (R&D Systems). At 24 hours after IL-4/IL-13 stimulation, BMDMs were collected for analysis.
Cells were stained with surface marker antibodies, washed with PBS, then resuspended in pre-warmed PBS (1×10^6 cells/ml/tube) containing 1 μM CM-H2DCFDA (Thermo Fisher Scientific, C6827). After 15 minutes incubation at room temperature, cells were immediately washed with cold PBS followed by flow cytometry analysis. ROS levels were measured by oxidation of the CM-H2DCFDA probes that can be read out as the fluorescence intensity at the FITC/488 channel of a flow cytometer. Single cell RNA sequencing (scRNAseq) scRNASeq was used to analyze the gene expression profiles of TIIs. B16-OVA tumours were harvested from Maoa WT and Maoa KO mice to prepare TII suspensions (10 tumours were combined for each group). TII suspensions were then sorted using a FACSAria II flow cytometer to purify immune cells (gated as DAPI-CD45.2^+ cells). Sorted TIIs were immediately delivered to the Technology Center for Genomics & Bioinformatics (TCGB) facility at UCLA for library construction and sequencing.

[3] = Maoa KO BMDMs, tyramine 100 μM, 30 min before IL-4/IL-13, 24 h
[4] = Maoa WT BMDMs, tyramine 100 μM, 30 min before IL-4/IL-13, 24 h
[5] = MAOI 20 μM added 30 min before cytokines
[6] = IL-4/IL-13-stimulated Maoa WT and KO BMDMs, H2O2 100 μM, 24 h

NCCc1ccc(O)cc1 [tyramine]
increase of ROS levels in BMDMs [1, 3]: not | upregulation of Arg1 mRNA expression in BMDMs [1, 3]: not | upregulation of Chi313 mRNA expression in BMDMs [1, 3]: not | Arg1 mRNA expression in BMDMs [1, 4]: upregulated | Chi313 mRNA expression in BMDMs [1, 4]: upregulated | ROS levels in BMDMs [1, 4]: increased

Cc1ccc2c(c1)c1c3n2CCNC3CCC1 (centres unmarked) [pirlindole]
ROS levels in BMDMs (FACS) [2, 5]: efficiently reduced | Arg1 mRNA expression in BMDMs (QPCR) ([2]; MAOI 20 μM): decreased expression | CD206 expression on BMDMs (FACS) ([2]; MAOI 20 μM): decreased expression | Chi313 mRNA expression in BMDMs (QPCR) ([2]; MAOI 20 μM): decreased expression | immunosuppressive polarization of BMDMs ([2]; MAOI 20 μM): suppressed

O=C(NCCN1CCOCC1)c1ccc(Cl)cc1 [mocolobemide, moclobemide]
ROS levels in BMDMs (FACS) ([2]; MAOI 200 μM added 30 min before cytokines): efficiently reduced | Arg1 mRNA expression in BMDMs (QPCR) ([2]; MAOI 200 μM): decreased expression | CD206 expression on BMDMs (FACS) ([2]; MAOI 200 μM): decreased expression | Chi313 mRNA expression in BMDMs (QPCR) ([2]; MAOI 200 μM): decreased expression | immunosuppressive polarization of BMDMs ([2]; MAOI 200 μM): suppressed

C#CCN(C)CCCOc1ccc(Cl)cc1Cl [clorgyline]
ROS levels in BMDMs (FACS) [2, 5]: efficiently reduced | Arg1 mRNA expression in BMDMs (QPCR) ([2]; MAOI 20 μM): decreased expression | CD206 expression on BMDMs (FACS) ([2]; MAOI 20 μM): decreased expression | Chi313 mRNA expression in BMDMs (QPCR) ([2]; MAOI 20 μM): decreased expression | immunosuppressive polarization of BMDMs ([2]; MAOI 20 μM): suppressed

OO [H2O2, hydrogen peroxide]
JAK-Stat6 signaling (JAK1, JAK2, JAK3, Stat6 phosphorylation, Western blot) ([1]; IL-4/IL-13-stimulated Maoa WT and KO BMDMs, H2O2 100 μM, 30 min stimulation, to similar levels): increased | Maoa WT vs KO difference in Arg1 expression [1, 6]: eliminated their differences | Maoa WT vs KO difference in CD206 expression [1, 6]: eliminated their differences | Maoa WT vs KO difference in Chi313 expression [1, 6]: eliminated their differences | intracellular ROS in BMDMs ([1]; IL-4/IL-13-stimulated Maoa WT and KO BMDMs, H2O2 100 μM, to similar levels): elevated
